19 compounds from PubChem BioAssay AID256 (DTP/NCI, 2004) can be followed below.

For this test, the system named is CD2F1 mice, L1210 leukemia ip, survival T/C. Kind of test: NCI In Vivo Anticancer Drug Screen. Data for tumor model L1210 Leukemia (intraperitoneal) in CD2F1 (CDF1) mice. The settings on record: higher = longer survival. The method in brief:
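Transplantable tumor in mice; compound-treated vs vehicle-treated groups. Read-out = treated/control ratio of the measured endpoint.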

The mark [1] stands for this setting: endpoint: mean survival time, dose: 25.0 mg/kg/injection, schedule: Q01DX009 (ip), vehicle: saline with Tween-80.
[2] abbreviates: endpoint: mean survival time, dose: 50.0 mg/kg/injection, schedule: Q01DX009 (ip), vehicle: saline with Tween-80.
Where [3] appears, read: endpoint: mean survival time, dose: 50.0 mg/kg/injection, schedule: Q04DX002 (ip), vehicle: saline with Tween-80.
Setting [4] is: endpoint: mean survival time, dose: 100.0 mg/kg/injection, schedule: Q01DX009 (ip), vehicle: saline with Tween-80.
Where [5] appears, read: endpoint: mean survival time, dose: 200.0 mg/kg/injection, schedule: Q01DX009 (ip), vehicle: saline with Tween-80.
Setting [6] is: endpoint: mean survival time, dose: 12.5 mg/kg/injection, schedule: Q01DX009 (ip), vehicle: saline with Tween-80.
Where [7] appears, read: endpoint: mean survival time, dose: 400.0 mg/kg/injection, schedule: Q01DX009 (ip), vehicle: saline with Tween-80.
Setting [8] is: endpoint: mean survival time, dose: 100.0 mg/kg/injection, schedule: Q01DX009 (ip), vehicle: Klucel (hydroxypropylcellulose) (HPC).
[9] abbreviates: endpoint: mean survival time, dose: 100.0 mg/kg/injection, schedule: Q01DX001 (ip), vehicle: saline with Tween-80.

Values joined by “and” are separate entries in the source; they are usually repeats but may differ in a detail not shown here. Equal values may be shown once. Toxic doses and inconclusive results are not listed.

Consider `CC1=CC(C(=O)O)P(C)(=O)C1` (configuration not stated), for which the T/C reads like this: under setting [1], 101 % of control; (endpoint: mean survival time, dose: 25.0 mg/kg/injection, schedule: Q04DX002 (ip), vehicle: saline with Tween-80) 100 % of control; under setting [2], 101 % of control; under setting [3], 91 % of control; under setting [4], 104 % of control; (endpoint: mean survival time, dose: 100.0 mg/kg/injection, schedule: Q04DX002 (ip), vehicle: saline with Tween-80) 95 % of control.

Regarding `COc1cccc(/C=N/C(=S)NC2(C)C3CCC(C3)C2(C)C)c1O` (configuration not stated), the T/C was 98 % of control (endpoint: mean survival time, dose: 12.5 mg/kg/injection, schedule: Q01DX009 (ip), vehicle: olive oil, sesame oil, peanut oil); 96 % of control (endpoint: mean survival time, dose: 25.0 mg/kg/injection, schedule: Q01DX009 (ip), vehicle: olive oil, sesame oil, peanut oil); 90 % of control (endpoint: mean survival time, dose: 50.0 mg/kg/injection, schedule: Q01DX009 (ip), vehicle: olive oil, sesame oil, peanut oil); 97 % of control (endpoint: mean survival time, dose: 100.0 mg/kg/injection, schedule: Q01DX009 (ip), vehicle: olive oil, sesame oil, peanut oil); 96 % of control (endpoint: mean survival time, dose: 200.0 mg/kg/injection, schedule: Q01DX009 (ip), vehicle: olive oil, sesame oil, peanut oil); 90 % of control (endpoint: mean survival time, dose: 400.0 mg/kg/injection, schedule: Q01DX009 (ip), vehicle: olive oil, sesame oil, peanut oil).

For the compound `O=C1NC(=O)C(Cc2ccccc2)C(=O)N1`, the T/C reads like this: under setting [2], 92 % of control; under setting [4], 96 % of control; under setting [5], 96 % of control.

Consider `C[Si](C)(C)n1nnn(-c2ccccc2)c1=O`, for which the T/C runs as follows: under setting [6], 97 % of control and 100 % of control; under setting [1], 97 % of control; under setting [2], 97 % of control and 101 % of control; under setting [4], 100 % of control and 103 % of control; under setting [5], 100 % of control and 103 % of control; under setting [7], 101 % of control.

For the compound `O=[N+]([O-])c1ccc2[nH]c3c(c2c1)CSCC3`, the T/C reads like this: under setting [8], 121 % of control; (endpoint: mean survival time, dose: 200.0 mg/kg/injection, schedule: Q01DX009 (ip), vehicle: Klucel (hydroxypropylcellulose) (HPC)) 97 % of control; (endpoint: mean survival time, dose: 400.0 mg/kg/injection, schedule: Q01DX009 (ip), vehicle: Klucel (hydroxypropylcellulose) (HPC)) 92 % of control.

For the compound `CC(C)(C)SC1C(O)C(CO)OC1n1ccc(N)nc1=O` (configuration not stated), the T/C reads like this: (endpoint: median survival time, dose: 12.5 mg/kg/injection, schedule: Q01DX005 (ip), vehicle: saline) 103 % of control; (endpoint: median survival time, dose: 25.0 mg/kg/injection, schedule: Q01DX005 (ip), vehicle: saline) 96 % of control; (endpoint: median survival time, dose: 50.0 mg/kg/injection, schedule: Q01DX005 (ip), vehicle: saline) 103 % of control; (endpoint: median survival time, dose: 100.0 mg/kg/injection, schedule: Q01DX005 (ip), vehicle: saline) 108 % of control; (endpoint: median survival time, dose: 200.0 mg/kg/injection, schedule: Q01DX005 (ip), vehicle: saline) 103 % of control.

As to `C=CCNc1nc2c(s1)CCc1cc(OC)c(OC)cc1-2`, the T/C reads like this: under setting [6], 92 % of control and 97 % of control; under setting [1], 95 % of control and 101 % of control; under setting [2], 97 % of control and 98 % of control; under setting [4], 97 % of control and 101 % of control; under setting [5], 97 % of control and 101 % of control; under setting [7], 106 % of control.

With `CC(=O)Nc1ccc(S(N)(=O)=O)cc1`, the T/C (endpoint: mean survival time, dose: 25.0 mg/kg/injection, schedule: Q01DX009 (ip), vehicle: Klucel (hydroxypropylcellulose) (HPC)) was 100 % of control; the T/C (endpoint: mean survival time, dose: 50.0 mg/kg/injection, schedule: Q01DX009 (ip), vehicle: Klucel (hydroxypropylcellulose) (HPC)) is 95 % of control; the T/C under setting [8] is 100 % of control.

`CN(CSc1ccc(Cl)cc1)c1ccccc1`: the T/C is, setting by setting: under setting [2], 96 % of control; under setting [4], 96 % of control; under setting [5], 96 % of control.

Regarding `NNC(=O)c1cccc([N+](=O)[O-])c1`, the T/C (endpoint: mean survival time, dose: 75.0 mg/kg/injection, schedule: Q01DX001 (ip), vehicle: saline) was 109 % of control.

As to `CCCCC(/C=N/N=C/C(CC)CCCC)CC` (configuration not stated), the T/C is 92 % of control (endpoint: mean survival time, dose: 6.25 mg/kg/injection, schedule: Q01DX005 (ip), vehicle: saline with Tween-80); 91 % of control (endpoint: mean survival time, dose: 6.25 mg/kg/injection, schedule: Q01DX009 (ip), vehicle: saline with Tween-80); 98 % of control (endpoint: mean survival time, dose: 6.25 mg/kg/injection, schedule: Q04DX002 (ip), vehicle: saline); 92 % of control (endpoint: mean survival time, dose: 12.5 mg/kg/injection, schedule: Q01DX005 (ip), vehicle: saline with Tween-80); 91 % of control under setting [6]; 103 % of control (endpoint: mean survival time, dose: 12.5 mg/kg/injection, schedule: Q04DX002 (ip), vehicle: saline). Also, the T/C runs as follows: (endpoint: mean survival time, dose: 25.0 mg/kg/injection, schedule: Q01DX005 (ip), vehicle: saline with Tween-80) 89 % of control; under setting [1], 95 % of control; (endpoint: mean survival time, dose: 25.0 mg/kg/injection, schedule: Q04DX002 (ip), vehicle: saline) 103 % of control; (endpoint: mean survival time, dose: 50.0 mg/kg/injection, schedule: Q01DX005 (ip), vehicle: saline with Tween-80) 92 % of control; under setting [2], 91 % of control; under setting [3], 95 % of control. Moreover, the T/C (endpoint: mean survival time, dose: 50.0 mg/kg/injection, schedule: Q04DX002 (ip), vehicle: saline) is 106 % of control and the T/C (endpoint: mean survival time, dose: 200.0 mg/kg/injection, schedule: Q04DX002 (ip), vehicle: saline with Tween-80) is 88 % of control.

On to `O=[N+]([O-])c1cnc(C2=C(O)c3ccccc3CC2)s1`, for which the T/C is, setting by setting: (endpoint: mean survival time, dose: 25.0 mg/kg/injection, schedule: Q01DX001 (ip), vehicle: saline with Tween-80) 96 % of control; (endpoint: mean survival time, dose: 50.0 mg/kg/injection, schedule: Q01DX001 (ip), vehicle: saline with Tween-80) 96 % of control; under setting [9], 100 % of control.

Consider `CC(=O)Nc1cccc(OCCOc2ccccc2[N+](=O)[O-])c1`, for which the T/C is 95 % of control (endpoint: mean survival time, dose: 100.0 mg/kg/injection, schedule: Q04DX002 (ip), vehicle: Klucel (hydroxypropylcellulose) (HPC)); 107 % of control (endpoint: mean survival time, dose: 200.0 mg/kg/injection, schedule: Q04DX002 (ip), vehicle: Klucel (hydroxypropylcellulose) (HPC)); 103 % of control (endpoint: mean survival time, dose: 400.0 mg/kg/injection, schedule: Q04DX002 (ip), vehicle: Klucel (hydroxypropylcellulose) (HPC)).

As to `CCCCCCCCCCCCCCn1cnc2c(Cl)ncnc21`, the T/C is, setting by setting: (endpoint: mean survival time, dose: 12.5 mg/kg/injection, schedule: Q01DX005 (ip), vehicle: other) 105 % of control; (endpoint: mean survival time, dose: 25.0 mg/kg/injection, schedule: Q01DX005 (ip), vehicle: other) 97 % of control; (endpoint: mean survival time, dose: 50.0 mg/kg/injection, schedule: Q01DX005 (ip), vehicle: other) 94 % of control; (endpoint: mean survival time, dose: 100.0 mg/kg/injection, schedule: Q01DX005 (ip), vehicle: other) 97 % of control; (endpoint: mean survival time, dose: 200.0 mg/kg/injection, schedule: Q01DX005 (ip), vehicle: other) 102 % of control.

For the compound `OCC1OC(n2cnc3c(SSc4ncnc5c4ncn5C4OC(CO)C(O)C4O)ncnc32)C(O)C1O` (configuration not stated), the T/C is 115 % of control (endpoint: mean survival time, dose: 178.0 mg/kg/injection, schedule: Q01DX009 (ip), vehicle: saline) and 150 % of control (endpoint: mean survival time, dose: 400.0 mg/kg/injection, schedule: Q01DX009 (ip), vehicle: saline).

Turning to `C=C1C(=O)OCC1(C(=O)OCC)C(=O)OCC`, the T/C is 100 % of control (endpoint: mean survival time, dose: 5.0 mg/kg/injection, schedule: Q01DX001 (ip), vehicle: saline); 100 % of control (endpoint: mean survival time, dose: 10.0 mg/kg/injection, schedule: Q01DX001 (ip), vehicle: saline); 100 % of control (endpoint: mean survival time, dose: 20.0 mg/kg/injection, schedule: Q01DX001 (ip), vehicle: saline); 108 % of control (endpoint: mean survival time, dose: 40.0 mg/kg/injection, schedule: Q01DX001 (ip), vehicle: saline).

With `CCCCCCCCCCCCCCCCCCCCCC(=O)CCCCCCCCCCCCCCCCCCCCC`, the T/C is, setting by setting: under setting [9], 86 % of control; (endpoint: mean survival time, dose: 200.0 mg/kg/injection, schedule: Q01DX001 (ip), vehicle: saline with Tween-80) 93 % of control; (endpoint: mean survival time, dose: 400.0 mg/kg/injection, schedule: Q01DX001 (ip), vehicle: saline with Tween-80) 101 % of control.

For the compound `CN1C(=O)[N+](C)(C)N=C1[O-]`, the T/C runs as follows: (endpoint: mean survival time, dose: 100.0 mg/kg/injection, schedule: Q04DX003 (ip), vehicle: saline) 94 % of control; (endpoint: mean survival time, dose: 200.0 mg/kg/injection, schedule: Q04DX003 (ip), vehicle: saline) 97 % of control; (endpoint: mean survival time, dose: 400.0 mg/kg/injection, schedule: Q04DX003 (ip), vehicle: saline) 95 % of control.

For `C/C(=C\c1ccc(Cl)c(Cl)c1)[N+](=O)[O-]`, the T/C by setting is: (endpoint: mean survival time, dose: 100.0 mg/kg/injection, schedule: Q01DX001 (ip), vehicle: saline) 104 % of control; (endpoint: mean survival time, dose: 200.0 mg/kg/injection, schedule: Q01DX001 (ip), vehicle: saline) 109 % of control; (endpoint: mean survival time, dose: 400.0 mg/kg/injection, schedule: Q01DX001 (ip), vehicle: saline) 111 % of control.
